Converted amounts (≈) assume the structure as drawn. “And” between values parts separate entries of the source, which are not always exact repeats. Equal entries are not always repeated. Where two headings read alike, the source gives them in different places.
Assays:
[1] = system: HIV isolates from the patient; test: Sensitivity of HIV isolates from the patient to antiviral compounds (p24 antigen production in co-culture with PHA-stimulated donor lymphocytes); format: cell-based, HIV-1; conditions: for IC50: mutations I135T, Q207E, T215F, K219Q, 50% inhibition of p24 antigen production, repeated experiment nos.
Method: A standard HIV-1 isolation from fresh lymphocytes and fresh plasma was performed at several time points (two months (60 days) before the start of therapy, 1 month (30 days) and 4 months (120 days) after start of the therapy).
Plasma or lymphocytes from the patient were co-cultured with 3·10^6 PHA stimulated (phytohemagglutinin, Sigma, St. Louis, Mo., USA) HIV-1 negative donor lymphocytes. Cultures were performed in a 5% CO2 atmosphere at 37°C. Medium was replaced every 3 to 4 days. When cell death occured, fresh PHA-stimulated donor lymphocytes were added. Every 3 to 4 days, the cultures were monitored for cytopathic effect and for the presence of HIV-1 p24 antigen in the supernatant. Cultures were followed during 5 weeks. A sample was considered positive for virus if the concentration of p24 antigen in the supernatant of the co-culture (determined by a p24 antigen capture test) exceeded 1000 pg per milliliter on a single determination or > 200 pg per milliliter on two consecutive determinations. Supernatants of positive isolates were aliquoted and frozen at -70°C.
(§1) An aliquot of a positive isolate was co-cultured with several cultures of PHA-stimulated donor lymphocytes. Serial dilutions of the antiviral compound (α-[(2-nitrophenyl)-amino]-2,6-dichlorobenzeneacetamide (Co. I) or zidovudine) were added to the cultures. Cultures were performed in a 5% CO2 atmosphere at 37°C. Medium and drugs were replaced every 3 to 4 days. When cell death occured, fresh PHA-stimulated donor lymphocytes were added. The cultures were monitored for cytopathic effect and for the presence of p24 antigen in the supernatant. When p24 levels produced in the controls (without antiviral compound) exceeded 1000 pg per milliliter, a p24 antigen test was performed on all cultures treated with antivirals The concentration of antiviral compound that was needed to inhibit 50% of p24 antigen production of the controls, was calculated (IC50). The sensitivity of the isolates obtained from the patient was determined on several occasions at different times (experiment nos.). The nucleotide sequence of the reverse transcriptase was determined in order to identify mutations selected by exposure of the retrovirus to Co. I. The results obtained thus far are shown in table 1.

Wild-type Strain IIIB = test: Sensitivity of wild-type HIV-1 strain to antiviral compounds (p24 antigen production in PHA-stimulated donor lymphocytes); format: cell-based; conditions: 50% inhibition of p24 antigen production, repeated experiment nos.
Method: as §1

[2] = isolate after four months of Co. I therapy, novel mutation Y181C
[3] = isolate obtained two months before the therapy switch

Row | SMILES | sensitivity of the HIV-1 isolate (in words) [1, 2] | sensitivity of the HIV-1 isolate (in words) [1, 3] | IC50 ([1]; patient isolate at time 120 days after start of Co. I therapy (400 mg t.i.d., po), Y181C) [µg/mL] | IC50 ([1]; patient isolate at time -60 days (two months before start of Co. I therapy)) | IC50 (Wild-type Strain IIIB) | IC50 (Wild-type Strain IIIB; Human immunodeficiency virus 1, IIIB, Lymphocyte, read-out: IC50) [µg/mL]
1 | NC(=O)C(Nc1ccccc1[N+](=O)[O-])c1c(Cl)cccc1Cl (stereo not drawn) [Co.I, α-[(2-nitrophenyl)amino]-2,6-dichlorobenzeneacetamide] | resistant | sensitive | >10 | 0.041 µg/mL and 0.07 µg/mL and 0.073 µg/mL and 0.054 µg/mL |  | 
2 | Cc1cn([C@H]2C[C@H](N=[N+]=[N-])[C@@H](CO)O2)c(=O)[nH]c1=O [zidovudine, 3'-azido-3'-deoxythymidine] | acquired again significant sensitivity | resistant |  |  | 0.001 µg/mL and 0.0008 µg/mL | 0.0011 (≈ 4.12 nM)
